Results reported in patent US8492561B2, “Azetidine derivatives as sphingosine 1-phosphate (S1P) receptor modulators” (Allergan, Inc., priority 2010, dated 2013).

Biological target: T1, human S1P1 receptor (Homo sapiens, UniProt P21453)
T1 construct: expressed in transfected cells; membranes from cells stably expressing the S1P1 receptor
Test: GTP γ35S binding assay for S1P1 activity
Format: biochemical
Settings: membranes of cells stably expressing the S1P1 receptor, agonist potency
Description: Compounds were synthesized and tested for S1P1 activity using the GTP γ^35S binding assay. These compounds may be assessed for their ability to activate or block activation of the human S1P1 receptor in cells stably expressing the S1P1 receptor.
GTP γ^35S binding was measured in the medium containing (mM) HEPES 25, pH 7.4, MgCl2 10, NaCl 100, dithiothreitol 0.5, digitonin 0.003%, 0.2 nM GTP γ^35S, and 5 μg membrane protein in a volume of 150 μl. Test compounds were included in the concentration range from 0.08 to 5,000 nM unless indicated otherwise. Membranes were incubated with 100 μM 5′-adenylylimmidodiphosphate for 30 min, and subsequently with 10 μM GDP for 10 min on ice. Drug solutions and membrane were mixed, and then reactions were initiated by adding GTP γ^35S and continued for 30 min at 25° C. Reaction mixtures were filtered over Whatman GF/B filters under vacuum, and washed three times with 3 mL of ice-cold buffer (HEPES 25, pH7.4, MgCl2 10 and NaCl 100). Filters were dried and mixed with scintillant, and counted for ^35S activity using a β-counter. Agonist-induced GTP γ^35S binding was obtained by subtracting that in the absence of agonist. Binding data were analyzed using a non-linear regression method. In case of antagonist assay, the reaction mixture contained 10 nM S1P in the presence of test antagonist at concentrations ranging from 0.08 to 5000 nM.

T1 sequence (P21453 whole entry): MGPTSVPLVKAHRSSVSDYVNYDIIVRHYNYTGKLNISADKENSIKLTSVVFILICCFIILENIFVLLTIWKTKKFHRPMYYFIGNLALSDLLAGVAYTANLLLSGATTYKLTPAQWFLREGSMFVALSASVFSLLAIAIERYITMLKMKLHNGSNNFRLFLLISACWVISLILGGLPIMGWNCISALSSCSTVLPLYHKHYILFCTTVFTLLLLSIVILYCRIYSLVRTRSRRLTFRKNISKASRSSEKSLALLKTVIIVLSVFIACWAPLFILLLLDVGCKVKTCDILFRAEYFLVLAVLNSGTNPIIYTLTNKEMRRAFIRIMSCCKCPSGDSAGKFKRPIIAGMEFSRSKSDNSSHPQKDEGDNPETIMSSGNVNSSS

Question: For `Cc1cccc(C(C#Cc2ccc(CN3CC(C(=O)O)C3)cc2)Cc2ccc(C)c(C)c2)c1` (stereo not shown) [Compound 7, 1-{4-[4-(3,4-dimethylphenyl)-3-(3-methylphenyl)but-1-yn-1-yl]benzyl}azetidine-3-carboxylic acid], which EC50 is on record?
Answer: 0.0919 µM

Question: How did the EC50 turn out when `Cc1ccc(CC(C#Cc2ccc(CN3CC(C(=O)O)C3)cc2C)c2cccc(Cl)c2)cc1C` (stereo not shown) [Compound 2, 1-{4-[3-(3-Chloro-phenyl)-4-(3,4-dimethyl-phenyl)-but-1-ynyl]-3-methyl-benzyl}-azetidine-3-carboxylic acid] was run?
Answer: 0.607 µM

Question: Which EC50 does the source give for `COc1cccc(C(C#Cc2ccc(CN3CC(C(=O)O)C3)cc2)Cc2ccc(C)c(C)c2)c1` (stereo not shown) [Compound 3, 1-{4-[4-(3,4-dimethylphenyl)-3-(3-methoxyphenyl)but-1-yn-1-yl]benzyl}azetidine-3-carboxylic acid] here?
Answer: 0.0423 µM

Question: How did the EC50 turn out when `O=C(O)C1CN(Cc2ccc(C#CC(Cc3ccc(Cl)c(Cl)c3)c3cccc(F)c3)cc2)C1` (stereo not shown) [Compound 5, 1-{4-[4-(3,4-Dichloro-phenyl)-3-(3-fluoro-phenyl)-but-1-ynyl]-benzyl}-azetidine-3-carboxylic acid] was run?
Answer: 0.31 µM

Question: `Cc1ccc(CC(C#Cc2ccc(CN3CC(C(=O)O)C3)cc2)c2cccc(Cl)c2)cc1C` (stereo not shown) [Compound 1, 1-{4-[3-(3-chlorophenyl)-4-(3,4-dimethylphenyl)but-1-yn-1 yl]benzyl}azetidine-3-carboxylic acid] was tested. Which EC50 did it give?
Answer: 0.016 µM

Question: With `Cc1ccc(CC(/C=C/c2ccc(CN3CC(C(=O)O)C3)cc2)c2cccc(F)c2)cc1C` (stereo not shown) [Compound 6, 1-{4-[(1E)-4-(3,4-dimethylphenyl)-3-(3-fluorophenyl)but-1-en-1-yl]benzyl}azetidine-3-carboxylic acid] as the compound, how does the EC50 read?
Answer: 0.0587 µM

Question: `Cc1ccc(CC(C#Cc2ccc(CN3CC(C(=O)O)C3)cc2)c2ccc(Cl)cc2)cc1C` (stereo not shown) [Compound 4, 1-{4-[3-(4-chlorophenyl)-4-(3,4-dimethylphenyl)but-1-yn-1-yl]benzyl}azetidine-3-carboxylic acid] was tested. Which EC50 did it give?
Answer: 0.128 µM
